Here are results for 17 compounds from patent publication EP4813986A1, “COMPOUND FOR REDUCING SERUM CONCENTRATION OF RBP4, AND USE” (Heronova Pharmaceuticals, LLC, priority 2023, dated 2025).

Read-outs that look alike come from different tables or passages of the source. Where only a bound is given, the exact number is not on record here.

Data set [1] in a line: Pharmacokinetic test, single oral dose, plasma LC-MS/MS. In kind it is in vivo. As to conditions: mouse, male ICR mice; for half-life: read-out: half-life T1/2 (converted); for Cmax: read-out: peak concentration Cmax; for Tmax: read-out: peak time Tmax. The procedure: Test Method: Three ICR mice (male) were used for each compound, with five groups in total. Mice were treated with a single oral dose of 10 mg/kg or 5 mg/kg. For each mouse, blood samples were collected at 0.25, 0.5, 1, 2, 4, and 8 hours after administration. Whole blood samples were placed in test tubes containing EDTA-K2, inverted up and down several times, and then centrifuged at 6000 rpm, 4°C for 15 minutes to obtain plasma. The concentration of the compound in plasma samples was determined using the LC-MS/MS method. Table 4 Pharmacokinetic Results of Different Compounds

The next data set is described as follows: in vitro. As to conditions: microsomes, pH 7.4. The procedure:
Phosphate buffer preparation: Weigh 7.098 g of disodium hydrogen phosphate, add 500 mL of pure water and dissolve by ultrasonication to obtain a disodium hydrogen phosphate solution. Weigh 3.400 g of potassium dihydrogen phosphate, add 250 mL of pure water and dissolve by ultrasonication to obtain a potassium dihydrogen phosphate solution. The disodium hydrogen phosphate solution and potassium dihydrogen phosphate solution were mixed and adjusted to pH 7.4+0.2.
10 mM NADPH preparation: Weigh an appropriate amount of NADPH (reduced coenzyme II), freshly prepare a 10 mM working solution with phosphate buffer, and the final concentration is 1 mM.
Incubation system preparation: Prepare the suspension into the incubation plate according to Table 5, and pre-incubate in a 37°C water bath for 10 min. Table 5 Incubation System Preparation
2 µL of positive control or test compound working solution was added to 358 µL of the incubation system, mixed uniformly by vortexing, and all samples were prepared in duplicate. 40 µL of 10 mM NADPH was added to the system, mixed uniformly by low-speed vortexing, and the reaction timing was started. […] Centrifuge at 4700 rpm, 4°C for 15 minutes to precipitate proteins. Transfer 100 µL of the supernatant to the sample plate, add 100 µL of pure water and mix well for UPLC-MS/MS analysis. Table 6 Liver Microsome Stability Results

The target in the next data set is T1, RBP4 (Mus musculus, UniProt Q00724).
T1 construct: from tissue; host or cells: plasma of ICR male mice
Description: Plasma RBP4 content detection test (ELISA) after single oral dose. To be noted: 5 mg/kg oral, maximum reduction within 5 to 24 hours vs 0-hour value. In kind it is in vivo, ICR male mice. As to the method:
Test Method: ICR male mice aged 7 to 8 weeks were adaptively fed for 3 to 7 days and randomly divided into groups (4 mice per group), and fasted for 12 hours before the test. Orbital venous blood samples were collected and plasma was separated before administration on the test day (0-hour value as the initial content). Then, test compounds at a dose of 1 mg/kg or 5 mg/kg were orally administered (vehicle: 5% DMSO + 10% cyclodextrin), and vehicle (5% DMSO + 10% cyclodextrin) was orally administered as a control group. Orbital venous blood samples were collected and plasma was separated at 5, 8, 10, 12, and 24 hours after compound administration. The RBP4 content in plasma samples was detected using Mouse RBP4 (Retinol Binding Protein 4, Plasma) ELISA Kit (immunoway, KE1574), the reduction rate was calculated, and the maximum reduction rate within 5 to 24 hours was selected. Reduction rate of RBP4 content in mouse plasma at different sampling time points = (Initial RBP4 content - RBP4 content at sampling point) / Initial RBP4 content. Table 2 Plasma RBP4 Reduction Levels of Different Compounds

The mark [2] stands for this setting: in vivo, single oral dose 10 mg/kg.

`COCCN1CCc2c(C(=O)N3CC=C(c4cccc(F)c4C(F)(F)F)CC3)n[nH]c2C1` [Compound 3]: in data set [1] (single oral dose 10 mg/kg), the AUC(0-t) (as a rule, the area under the concentration-time curve up to a stated or last time point) came out at 119 ng·h/mL; the half-life is 442 min; the Cmax was determined as 159 ng/mL; the Tmax (as a rule, the time at which the peak concentration occurs) is 30 min. Further, in the data set “in vitro” (human), the half-life at 1 µM is 18.7 min and the microsomal CLint – broadly, the rate of metabolic loss divided by the concentration – at 1 µM was determined as 74 µL/min/mg. In “in vitro” (mouse), this compound returned a half-life at 1 µM of 26.3 min and a microsomal CLint at 1 µM of 52.7 µL/min/mg.

Turning to `[2H]C([2H])([2H])OCC(=O)N1CCc2c(C(=O)N3CC=C(c4ccc(F)c(F)c4C(F)(F)F)CC3)n[nH]c2C1` [Compound 9], in data set [1] (single oral dose 10 mg/kg), the AUC(0-t) turned out to be 1030 ng·h/mL, the half-life was 40 min, the Cmax came to 1090 ng/mL and the Tmax stood at 30 min. On RBP4, the “Maximum Plasma RBP4 Reduction Rate (5 mg/kg dose)” value (“Maximum Plasma RBP4 Reduction Rate” below) turned out to be 82%. In “in vitro” (human), this compound came in with a half-life at 1 µM of 130 min and a microsomal CLint at 1 µM of 10.6 µL/min/mg. Also, in the data set “in vitro” (mouse), the half-life at 1 µM worked out at 17.2 min and the microsomal CLint at 1 µM is 80.8 µL/min/mg.

Regarding `O=C1NCC[C@@H]1N1CCc2c(C(=O)N3CC=C(c4cccc(F)c4C(F)(F)F)CC3)n[nH]c2C1` [Compound 20], in data set [1] (single oral dose 10 mg/kg), the AUC(0-t) amounted to 208 ng·h/mL, the half-life is 97.8 min, the Cmax worked out at 112 ng/mL and the Tmax is 30 min. Further, in “in vitro” (human), the half-life at 1 µM was determined as 99 min and the microsomal CLint at 1 µM was 14 µL/min/mg. In “in vitro” (mouse), this compound gave a half-life at 1 µM of 13.7 min and an intrinsic metabolic clearance (microsomal CLint) at 1 µM of 101 µL/min/mg.

With `CC(C(N)=O)C(=O)N1CCc2c(C(=O)N3CC=C(c4ccc(F)c(F)c4C(F)(F)F)CC3)n[nH]c2C1` (stereo not shown) [Compound 19], in data set [1] (single oral dose 10 mg/kg), the AUC(0-t) amounted to 41.9 ng·h/mL, the half-life is 119 min, the Cmax stood at 22.3 ng/mL and the Tmax was determined as 50 min. For the same compound, in the data set “in vitro” (human), the half-life at 1 µM is more than 180 min and the microsomal CLint at 1 µM was less than 7.44 µL/min/mg. In “in vitro” (mouse), this compound had a half-life at 1 µM of 74.6 min and a microsomal CLint at 1 µM of 18.6 µL/min/mg.

With `NC(=O)C(=O)N1CCc2c(C(=O)N3CC=C(c4cccc(F)c4C(F)(F)F)CC3)n[nH]c2C1` [Compound 21], in data set [1] (single oral dose 10 mg/kg), the AUC(0-t) was determined as 1200 ng·h/mL, the half-life is 152 min, the Cmax was 519 ng/mL and the Tmax was 30 min. Moreover, the “Maximum Plasma RBP4 Reduction Rate” value at RBP4 is 14%. In “in vitro” (human), the half-life at 1 µM is more than 180 min and the microsomal CLint at 1 µM was less than 7.44 µL/min/mg. In the data set “in vitro” (mouse), the half-life at 1 µM stood at 136 min and the microsomal CLint at 1 µM came out at 10.2 µL/min/mg.

`NC(=O)CN1CCc2c(C(=O)N3CC=C(c4ccc(F)c(F)c4C(F)(F)F)CC3)n[nH]c2C1` [Compound 10]: in data set [1] (single oral dose 10 mg/kg), the AUC(0-t) was determined as 1200 ng·h/mL, the half-life was 113 min, the Cmax turned out to be 468 ng/mL and the Tmax came out at 30 min. The “Maximum Plasma RBP4 Reduction Rate” value at RBP4 is 72%. In the data set “in vitro” (human), this compound registered a half-life at 1 µM of more than 180 min and a microsomal CLint at 1 µM of less than 7.44 µL/min/mg. Besides, in “in vitro” (mouse), the half-life at 1 µM came to 18.6 min and the microsomal CLint at 1 µM was 74.5 µL/min/mg.

Turning to `NC(=O)C(=O)N1CCc2c(C(=O)N3CC=C(c4ccc(F)c(F)c4C(F)(F)F)CC3)n[nH]c2C1` [Compound 16], in data set [1] (single oral dose 5 mg/kg), the AUC(0-t) was determined as 490 ng·h/mL, the half-life is 101 min, the Cmax was 235 ng/mL and the Tmax is 30 min. In “in vitro” (human), this compound came in with a half-life at 1 µM of more than 180 min and a microsomal CLint at 1 µM of less than 7.44 µL/min/mg. For the same compound, in the data set “in vitro” (mouse), the half-life at 1 µM was more than 180 min and the microsomal CLint at 1 µM is less than 7.44 µL/min/mg.

Take `O=C(c1n[nH]c2c1CCNC2)N1CC=C(c2cccc(F)c2C(F)(F)F)CC1` [Compound 13]: in data set [1] (single oral dose 10 mg/kg), the AUC(0-t) is 6040 ng·h/mL, the Cmax amounted to 1200 ng/mL and the Tmax worked out at 120 min. The “Maximum Plasma RBP4 Reduction Rate” value at RBP4 turned out to be 67%. In the data set “in vitro” (human), this compound showed a half-life at 1 µM of more than 180 min and a microsomal CLint at 1 µM of less than 7.44 µL/min/mg. In the data set “in vitro” (mouse), this compound yielded a half-life at 1 µM of 30.2 min and an intrinsic clearance (microsomal CLint) at 1 µM of 45.8 µL/min/mg.

In “in vitro” (human), `CN(C)C(=O)CN1CCc2c(C(=O)N3CC=C(c4ccc(F)c(F)c4C(F)(F)F)CC3)n[nH]c2C1` [Compound 12] registered a half-life at 1 µM of 126 min and a microsomal CLint at 1 µM of 11 µL/min/mg. In the data set “in vitro” (mouse), this compound showed a half-life at 1 µM of 4.2 min and a microsomal CLint at 1 µM of 330 µL/min/mg.

In the data set “in vitro” (human), `CC(=O)N1CCc2c(C(=O)N3CC=C(c4cccc(F)c4C(F)(F)F)CC3)n[nH]c2C1` [Compound 2] showed a half-life at 1 µM of 94.4 min and a microsomal CLint at 1 µM of 14.7 µL/min/mg. For the same compound, in the data set “in vitro” (mouse), the half-life at 1 µM was found to be 18.8 min and the intrinsic clearance (microsomal CLint) at 1 µM was determined as 73.6 µL/min/mg.

With `CC(=O)N1CCc2c(C(=O)N3CCC(c4ccc(F)c(F)c4C(F)(F)F)CC3)n[nH]c2C1` [reference compound, 1-(3-(4-(3,4-difluoro-2-(trifluoromethyl)phenyl)piperidine-1-carbonyl)-4,5-dihydro-1H-pyrazolo[3,4-c]pyridin-6(7H)-yl)ethanone, reference compound], in data set [1] (single oral dose 10 mg/kg), the AUC(0-t) was 8830 ng·h/mL, the half-life was 92.4 min, the Cmax was 3230 ng/mL and the Tmax worked out at 40.2 min.

In the data set “in vitro” (human), `CNC(=O)CN1CCc2c(C(=O)N3CC=C(c4ccc(F)c(F)c4C(F)(F)F)CC3)n[nH]c2C1` [Compound 11] had a half-life at 1 µM of 140 min and a microsomal CLint at 1 µM of 9.9 µL/min/mg. In the data set “in vitro” (mouse), this compound registered a half-life at 1 µM of 11.4 min and a microsomal CLint at 1 µM of 121 µL/min/mg.

Turning to `O=C(c1n[nH]c2c1COCC2)N1CC=C(c2ccc(F)c(F)c2C(F)(F)F)CC1` [Compound 17], in data set [1] (setting [2]), the AUC(0-t) is 17800 ng·h/mL, the half-life is 201 min, the Cmax came out at 2860 ng/mL and the Tmax came to 108 min. In “in vitro” (human), this compound had a half-life at 1 µM of more than 180 min and a microsomal CLint at 1 µM of less than 7.44 µL/min/mg. In “in vitro” (mouse), this compound displayed a half-life at 1 µM of 36.4 min and a microsomal CLint at 1 µM of 38.1 µL/min/mg.

For the compound `COCC(=O)N1CCc2c(C(=O)N3CC=C(c4cccc(F)c4C(F)(F)F)CC3)n[nH]c2C1` [Compound 6], in data set [1] (single oral dose 10 mg/kg), the AUC(0-t) is 383 ng·h/mL, the half-life is 230 min, the Cmax was found to be 285 ng/mL and the Tmax was determined as 30 min. In “in vitro” (human), this compound had a half-life at 1 µM of 63 min and a microsomal CLint at 1 µM of 22 µL/min/mg. In the data set “in vitro” (mouse), this compound returned a half-life at 1 µM of 9.46 min and a microsomal CLint at 1 µM of 146 µL/min/mg.

For `[2H]C([2H])([2H])OCC(=O)N1CCc2c(C(=O)N3CC=C(c4cccc(F)c4C(F)(F)F)CC3)n[nH]c2C1` [Compound 8], in data set [1] (single oral dose 10 mg/kg), the AUC(0-t) was found to be 556 ng·h/mL, the half-life is 199 min, the Cmax was 515 ng/mL and the Tmax stood at 30 min. Further, in the data set “in vitro” (human), the half-life at 1 µM came to 70.4 min and the microsomal CLint at 1 µM is 19.7 µL/min/mg. In “in vitro” (mouse), this compound yielded a half-life at 1 µM of 6.79 min and a microsomal CLint at 1 µM of 204 µL/min/mg.

With `O=C(c1n[nH]c2c1COCC2)N1CC=C(c2cccc(F)c2C(F)(F)F)CC1` [Compound 23], in “in vitro” (human), the half-life at 1 µM amounted to 54.3 min and the microsomal CLint at 1 µM was found to be 25.5 µL/min/mg. Also, in the data set “in vitro” (mouse), the half-life at 1 µM came to 10.7 min and the microsomal CLint at 1 µM is 130 µL/min/mg.

In “in vitro” (human), `O=C1NCC[C@@H]1N1CCc2c(C(=O)N3CC=C(c4ccc(F)c(F)c4C(F)(F)F)CC3)n[nH]c2C1` [Compound 18] displayed a half-life at 1 µM of more than 180 min and a microsomal CLint at 1 µM of less than 7.44 µL/min/mg. Also, in the data set “in vitro” (mouse), the half-life at 1 µM is 18.8 min and the microsomal CLint at 1 µM came out at 73.5 µL/min/mg.
